From Sander's compilation of Henry's law constants (doi:10.1021/ie980743h) come the findings set out here.

Structures are written as SMILES.

The first data set is described as follows: Henry solubility constant Hcp at 298.15 K (mol/(m3 Pa)). Conditions: reference: Dohnal and Hovorka (1999).
For the compound `Cc1ccccc1C` [1,2-dimethylbenzene], the “Henry solubility constant Hcp” value stood at 0.0021.
The same measure, in the same setting: with `Cc1cccc(C)c1` [1,3-dimethylbenzene] the figure was 0.0015; with `Cc1ccc(C)cc1` [1,4-dimethylbenzene], 0.0015.
On the same count and under the same terms, with `CCC(C)(C)OC` [2-methoxy-2-methylbutane] the figure was 0.01; with `c1ccccc1` [benzene], 0.0018; with `CC(C)OC(C)C` [diisopropyl ether], 0.0047.
The same measure, in the same setting: with `C=Cc1ccccc1` [ethenylbenzene] the figure was 0.0034; with `Cc1ccccc1` [methylbenzene], 0.0016.

Another data set in a line: Henry solubility constant Hcp at 293 K (mol/(m3 Pa)). Conditions: reference: Dohnal and Hovorka (1999).
Take `ClCC(Cl)Cl` [1,1,2-trichloroethane]: the “Henry solubility constant Hcp at 293 K” value worked out at 0.015.
Still for that read-out and setting: the same measure for `CC(Cl)CCl` (centres undefined) [1,2-dichloropropane]: 0.0044; for `CCCCCl` [1-chlorobutane]: 0.00067.
On the same count and under the same terms, the same measure for `Clc1ccccc1` [chlorobenzene]: 0.0036; for `BrCBr` [dibromomethane]: 0.014; for `ClC(Cl)=C(Cl)Cl` [tetrachloroethene]: 0.00086.
